Laboratory results taken from patent US11866416B2, “Streptococcus mutans glucosyl transferase inhibitors for dental caries therapy” (UAB Research Foundation, priority 2018, dated 2024).
Converted amounts (≈) assume the structure as drawn. Where two headings read alike, the source gives them in different places.

Legend:
[1] = tested on: S. mutans; experiment: microbe, parasite or virus in culture; assay type: cell-based, Streptococcus mutans; conditions: for Growth MIC50: Table 8, stilbenes
How it was run: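 Mid-exponential cultures (OD470 0.6) in THB were exposed to compound concentrations for 16 h, with growth read at OD470 and normalised to 1% DMSO control (100%). CFU/mL were also counted after 24 h at 37 °C and compared with the DMSO control.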

[2] = tested on: S. mutans Gtfs; experiment: Gtf zymographic assay with SDS-PAGE; assay type: biochemical, Streptococcus mutans; conditions: for glucan production in zymogram assay: stilbenes, versus DMSO control
Protocol: A well-established zymographic assay was used to determine enzymatic activity of Gtfs (Mattos-Graner et al. (2004) J. Clin. Microbiol. 42, […]). In brief, overnight S. mutans UA159 cultures were diluted 1:100 in fresh 5 mL THB with 50 μL of selective compounds at a series of concentrations. Treated bacteria were grown to OD470 of 1.0, and spun down by centrifugation at 4° C., and culture supernatants were collected and filtered through a 0.22-μm-pore-size filter membrane to remove residual bacterial cells and dialyzed at 4° C. against 0.02 M sodium phosphate buffer (pH 6.8), with 10 μM phenylmethylsulfonyl fluoride (PMSF), followed by a second dialysis against 0.2 mM sodium phosphate containing 10 μM PMSF. After dialysis, 4 mL of samples were concentrated to 40 μL by 100K Amicon Ultra-4 centrifugal filter (Merck Millipore Ltd.). For electrophoresis and zymographic analysis, 10 μL of each concentrated culture supernatant was applied to 8% SDS-PAGE in duplicate. One gel was used for protein staining with Coomassie blue dye, while the other one was subjected to zymographic assay as described (Mattos-Graner et al. (2004) J. Clin. Microbiol. 42, […]). The resultant white opaque glucan bands were visualized against a black background.
Inhibition of the activity of Gtfs determined by zymographic assays. Well established zymographic assay was used to determine enzymatic activity of Gtfs. In brief, overnight S. mutans UA159 cultures were diluted 1:100 in fresh 5 mL THB. Bacteria were grown to OD470 of 1.0, and spun down by centrifugation at 4° C. and culture supernatants were collected and filtered through a 0.22-μm-pore-size filter membrane to remove residual bacterial cells and dialyzed at 4° C. against 0.02 M sodium phosphate buffer (pH 6.8), with 10 μM phenylmethylsulfonyl fluoride (PMSF), followed by a second dialysis against 0.2 mM sodium phosphate containing 10 μM PMSF. After dialysis, 4 mL of samples were concentrated to 40 μL by 100K Amicon Ultra-4 centrifugal filter (Merk Millipore Ltd.). For electrophoresis and zymographic analysis, 10 μL of each concentrated culture supernatant was applied to 8% SDS-PAGE in duplicate. One gel was used for protein staining with Coomassie blue dye, while the other one was subjected to zymographic assay. For zymogram analysis, following electrophoretic separation, gels were washed twice for 15 min each with renaturing buffer containing 2.5% Triton X-100. Gels were then incubated for 18 h at 37° C. with 0.2 M sodium phosphate buffer (pH 6.5) containing 0.2% dextran T70, 5% sucrose, and varying concentrations of the small molecule inhibitors. The reactions were stopped by washing gels with distilled water at 4° C. for 10 min, and digital images of the resultant white opaque glucan bands were visualized against a black background and captured using a digital camera.
Inhibition of the activity of Gtfs determined by zymographic assays. A well-established zymographic assay was used to determine enzymatic activity of Gtfs (Mattos-Graner, R. O., Napimoga, M. H., Fukushima, K., Duncan, M. J., Smith, D. J., J Clin Microbiol, 2004, 42, 4586). In brief, overnight S. mutans UA159 cultures were diluted 1:100 in fresh 5 mL THB with 50 μL of selective compounds at a series of concentrations. Treated bacteria were grown to OD470 of 1.0, and spun down by centrifugation at 4° C., and culture supernatants were collected and filtered through a 0.22-μm-pore-size filter membrane to remove residual bacterial cells and dialyzed at 4° C. against 0.02 M sodium phosphate buffer (pH 6.8), with 10 μM phenylmethylsulfonyl fluoride (PMSF), followed by a second dialysis against 0.2 mM sodium phosphate containing 10 μM PMSF. After dialysis, 4 mL of samples were concentrated to 40 μL by 100K Amicon Ultra-4 centrifugal filter (Merk Millipore Ltd.). For electrophoresis and zymographic analysis, 10 μL of each concentrated culture supernatant was applied to 8% SDS-PAGE in duplicate. […]

[3] = Streptococcus mutans, Table 3, >300 = no inhibition up to 300 μM, NI = no inhibition up to 400 μM, read-out: Growth Inhibition MIC50
[4] = Streptococcus mutans, Table 4, stilbenes, average of at least 5 measurements, NI = no inhibition, read-out: Growth MIC50
[5] = average of at least 5 measurements, NI = no inhibition

NC(=O)c1ccccc1NC(=O)c1cc2cc([N+](=O)[O-])ccc2s1 [#G43]
S. mutans cell viability (CFU) versus control ([1]; up to 200 μM): No significant difference | glucan production of the Gtfs in zymographic assay ([2]; 25 μM, Gtfs from wild type S. mutans): drastically reduced the glucan production | glucan bands in zymographic assay ([2]; 50 μM, Gtfs from S. mutans UA159 supernatants): drastically reduced the glucan bands

Oc1cc(O)cc(/C=C/c2ccc(O)c(O)c2)c1 [Piceatannol]
inhibition of S. mutans cell viability (%) at 400 µM ([1]; Streptococcus mutans, 400 μM): 37% | MIC50 [1, 3]: 564 ± 38 µM (≈ 138 µg/mL) | MIC50 [1, 4]: 564 ± 37.8 µM (≈ 138 µg/mL) | inhibition at 52 µM ([1]; Streptococcus mutans, at 52 μM, read-out: growth of S. mutans inhibited): < 10% | Growth MIC50 [1, 5]: 564 ± 37.8 µM | glucan production in zymogram assay [2]: greatly reduced glucan production

Oc1ccc(/C=C/c2cc(O)cc(O)c2)cc1 [Resveratrol, reference compound]
MIC50 [1, 3]: 546 ± 16 µM (≈ 125 µg/mL) | MIC50 [1, 4]: 546 ± 15.9 µM (≈ 125 µg/mL) | Growth MIC50 [1, 5]: 546.4 ± 15.9 µM | glucan production in zymogram assay [2]: marginal inhibition
